In US20020183519A1, “Antithrombotic carboxylic acid amides” (priority 2001, published 2002) one finds IC50 data, which are given here for nine compounds.

The target in this test is T1, human factor Xa (Homo sapiens, UniProt P00742).
T1 construct: released from the colourless chromogenic substrate by human factor Xa; purchased Roche
Put plainly: Inhibition of factor Xa, enzyme-kinetic measurement with chromogenic substrate. It counts as biochemical. To be noted: human factor Xa (Roche) 0.175 U/ml, substrate Chromozym X 200 μMol/l, pH 8.0, 37° C., 405 nm. How it is done: Method: Enzyme-kinetic measurement with chromogenic substrate. The quantity of p-nitroaniline (pNA) released from the colourless chromogenic substrate by human factor Xa is determined photometrically at 405 nm. It is proportional to the activity of the enzyme used. The inhibition of the enzyme activity by the test substance (in relation to the solvent control) is determined at various concentrations of test substance and from this the IC50 is calculated, as the concentration which inhibits the factor Xa used by 50%.
Material: Tris(hydroxymethyl)-aminomethane buffer (100 mmol) and sodium chloride (150 mmol), pH 8.0
Factor Xa (Roche), spec. activity: 10 U/0.5 ml, final concentration: 0.175 U/ml for each reaction mixture
Substrate Chromozym X (Roche), final concentration: 200 μMol/l for each reaction mixture
Procedure: 10 μl of a 23.5-times concentrated starting solution of the test substance or solvent (control), 175 μl of tris(hydroxymethyl)-aminomethane buffer and 25 μl of a 1.65 U/ml Factor Xa working solution are incubated for 10 minutes at 37° C. After the addition of 25 μl of Chromozym X working solution ([…]) the sample is measured in a photometer (SpectraMax 250) at 405 nm for 150 seconds at 37° C.
1. Determining the maximum increase (deltaOD/minutes) over 3 measuring points.
2. Determining the % inhibition based on the solvent control.
3. Plotting a dosage/activity curve (% inhibition vs substance concentration).
4. Determining the IC50 by interpolating the X value (substance concentration) of the dosage/activity curve at Y=50% inhibition.

T1 sequence (P00742 235-488 limits assumed): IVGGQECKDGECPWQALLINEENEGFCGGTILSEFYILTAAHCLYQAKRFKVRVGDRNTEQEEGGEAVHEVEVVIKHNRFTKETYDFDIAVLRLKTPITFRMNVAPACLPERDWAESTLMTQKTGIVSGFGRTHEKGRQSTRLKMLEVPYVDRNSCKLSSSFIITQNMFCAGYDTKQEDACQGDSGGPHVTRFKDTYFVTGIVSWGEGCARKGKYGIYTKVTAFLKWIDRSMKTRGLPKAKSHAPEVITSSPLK
T1 sequence (P00742 41-179 partner limits assumed): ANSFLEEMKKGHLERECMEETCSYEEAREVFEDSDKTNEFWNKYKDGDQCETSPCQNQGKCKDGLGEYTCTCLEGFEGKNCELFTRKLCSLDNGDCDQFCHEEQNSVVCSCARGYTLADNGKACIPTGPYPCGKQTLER

In general, IC50 refers to the point on the concentration scale where inhibition reaches its midpoint. `Cc1cc(NC(=O)Cc2cc(C(=N)N)ccc2O)ccc1-n1cnc2c1CCCC2` [(2)] gave an IC50 of 0.081 µM.

Turning to `CCOC(=O)CC(NC(=O)c1ccc(-n2cnc3c2CCCC3)c(C(F)(F)F)c1)c1cccc(C(=N)N)c1` (stereo not drawn) [(8)], half-maximal inhibition (IC50) required 0.028 µM.

As to `Cc1cc(NC(=O)Cc2cc(C(=N)N)ccc2O)ccc1-c1ncnc2c1CCC2` [(3)], the IC50 is 0.062 µM.

Compound `Cc1nn(-c2ccc(C(=O)NCc3cc(C(=N)N)ccc3O)cc2C(F)(F)F)c2c1CCC2` [(4)] registered an IC50 of 0.015 µM. Compared with the last compound, the IC50 is about 4.1-fold lower.

In the case of `N=C(N)c1ccc(O)c(CNC(=O)c2ccc(-n3nc(CN)c4c3CCC4)c(C(F)(F)F)c2)c1` [(6)], it took 0.007 µM to reach half-maximal inhibition (IC50). Against the preceding compound, the IC50 is about 2.1-fold lower.

As to `COC(=O)c1nn(-c2ccc(C(=O)NCc3cc(C(=N)N)ccc3O)cc2C(F)(F)F)c2c1CCC2` [(9)], the 50% inhibitory concentration (IC50) was found to be 0.024 µM.

`Cc1cc(NC(=O)Cc2cc(C(=N)N)ccc2O)ccc1-n1c(N2CCCC2)nc2ccccc21` [(1)] yielded an IC50 of 0.14 µM.

In turn, `CCOC(=O)CC(NC(=O)c1ccc(-n2nc(CN)c3c2CCC3)c(C(F)(F)F)c1)c1cccc(C(=N)N)c1` (stereo not drawn) [(7)] displayed a concentration for half-maximal inhibition (IC50) of 0.0075 µM.

For the compound `CNC(=O)c1nn(-c2ccc(C(=O)NCc3cc(C(=N)N)ccc3O)cc2C(F)(F)F)c2c1CCC2` [(5)], the IC50 came out at 0.016 µM.
